Values of other authors in US20230240327A1, “FUNCTIONAL SOYBEAN MEAL” (CAN TECHNOLOGIES, INC., priority 2020, published 2023).
Like-named read-outs stand apart in the source and are kept apart here.

Experiments:
Bacteria = details: when in their dissociated form
[1] = Table 7
microorganisms = details: according to several studies; compared with antibiotics

O=C(O)c1ccccc1 [Benzoic acid]
Main effects (poultry; 0.20 wt% of feed): Positive influence on growth.

CCCC(=O)O [Butyric acid]
Main effects (poultry; 0.15 wt% of feed (butyric acid)): Maintain the beneficial micro flora

O=CO [Formic acid]
Main effects (poultry; 0.50 - 1.00 wt% of feed (formic acid)): Reduction of coecal pH and bactericidal effect on Salmonella. | bactericidal effect (Bacteria): bactericidal effect

O=C(O)/C=C/C(=O)O [Fumaric acid]
Main effects (poultry; 0.50 - 1.00 wt% of feed (fumaric acid)): Improvement in weight gain of broilers.

CC(O)C(=O)O (stereo not drawn) [Lactic acid]
Main effects (poultry; 2.00 wt% of feed): Feed to gain ratio significantly improved. Body weight gain. | bactericidal effect (Bacteria): bactericidal effect

CCCCCCCCCCCC(=O)O [Lauric acid]
pKa [1]: 5.13

O=C(O)CC(O)C(=O)O (stereo not drawn) [Malic acid]
Main effects (poultry; 0.50 - 2.00 wt% of feed): Increase in weight gain.

CCC(=O)O [Propionic acid (buffered), Propionic acid]
Main effects (poultry; 0.15 - 0.20 wt% of feed (buffered propionic acid)): Increase in dressing percentage in female broilers.

CCC(=O)O [Propionic acid]
bactericidal effect (Bacteria): bactericidal effect

C/C=C/C=C/C(=O)O [Sorbic acid]
Main effects (poultry; 1.12 wt% of feed): Improves feed efficiency. | bactericidal effect (Bacteria): bactericidal effect

O=C(O)C(O)C(O)C(=O)O (stereo not drawn) [Tartaric acid]
Main effects (poultry; 0.33 wt% of feed): Improves weight gain.

Cc1ccc(C(C)C)cc1O [carvacrol]
antimicrobial activity (microorganisms): stronger than in some antibiotics

C=CCc1ccc(O)c(OC)c1 [eugenol]
antimicrobial activity (microorganisms): stronger than in some antibiotics

CC(C)=CCC/C(C)=C/CO [geraniol]
antimicrobial activity (microorganisms): stronger than in some antibiotics

Cc1ccc(C(C)C)c(O)c1 [thymol]
antimicrobial activity (microorganisms): stronger than in some antibiotics
